The text below walks through data of PubChem BioAssay AID434987 (Southern Research Specialized Biocontainment Screening …, 2010).

The source made the active and inactive calls. No rule for the calls is given here. A value given as a limit tells only on which side of the number the result lay.

The test system of the test is M. tuberculosis H37Rv growth inhibition with meropenem. The test is described as follows: dose response, H37Rv, with and without meropenem (AID 434987).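 Also: growth over 7 days at 37 °C before Alamar Blue read on day 9.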
[1] abbreviates: M. tuberculosis H37Rv growth inhibition, measured here: IC50 without meropenem.
[2] abbreviates: M. tuberculosis H37Rv growth inhibition, measured here: IC90 without meropenem.
Setting [3] is: measured here: IC90 with meropenem.

Broadly, the IC50 is the concentration needed to halve the response being measured. A word on the IC90: it is the concentration needed for an effect of 90%. High values mean a need for much substance, low ones an effect from little substance.

In the case of `CCOc1ccc(/C=N/NC(=O)c2ccccc2O)cc1CN1CC2CC(C1)c1cccc(=O)n1C2` (stereo not drawn), the IC50 is 79.8 µM (inactive). This compound showed an IC50 under setting [1] of 94.9 µM. Further, the IC90 under setting [2] was > 100 µM. Under setting [3], the 90% effect concentration (IC90) was > 100 µM.

With `CC(=O)Nc1cccc(/C(C)=N/NC(N)=S)c1`, the IC50 was 7.9 µM. The IC50 under setting [1] was > 100 µM. For the same compound, the IC90 under setting [2] is > 100 µM. The compound further yielded an IC90 under setting [3] of 28.6 µM.

In the case of `CCOC(=O)N1CCN(C(=O)CSc2nnc(-c3ccccc3OC)o2)CC1`, the IC50 is 6.68 µM. The compound further showed an IC50 under setting [1] of 30 µM. This compound registered an IC90 under setting [2] of 62.6 µM. Also, under setting [3], the IC90 was > 100 µM.

Take `Cc1cc(NC(=O)c2ccc3c(c2)OCCO3)ccc1NC(=O)c1cc2ccccc2o1`: the IC50 was 76.3 µM (inactive). For the same compound, the IC50 under setting [1] was > 100 µM. Under setting [2], the IC90 is > 100 µM. Moreover, under setting [3], the IC90 is > 100 µM.

Turning to `CCOc1ccc(N2C(=O)CC(N)C2=O)cc1` (stereo not drawn), the IC50 is 30.9 µM (inactive). In addition, the IC50 under setting [1] amounted to 45.9 µM. The same compound gave an IC90 under setting [2] of 51.4 µM. The same compound returned an IC90 under setting [3] of 52.4 µM.

For the compound `CC1CCCN(S(=O)(=O)c2ccc(C(=O)Nc3nnc(-c4ccncc4)o3)cc2)C1` (stereo not drawn), the IC50 is 32.4 µM (inactive). Further, under setting [1], the IC50 is 49.3 µM. This compound came in with a 90% effect concentration (IC90) under setting [2] of 78.1 µM. Under setting [3], this compound yielded an IC90 of 64.8 µM.

In the case of `CC(C)(C)Nc1nc(Nc2ccc([N+](=O)[O-])cc2)nc(NC(C)(C)C)n1`, the IC50 was > 100 µM (inactive). The IC50 under setting [1] was > 100 µM. Also, under setting [2], the IC90 is > 100 µM. The IC90 under setting [3] was > 100 µM.

For the compound `COc1ccc(Nc2cc(C(=O)NCc3ccco3)c3ccccc3n2)c(OC)c1`, the IC50 was > 100 µM (inactive). In addition, under setting [1], the IC50 is > 100 µM. In addition, the IC90 under setting [2] is > 100 µM. For the same compound, the IC90 under setting [3] is > 100 µM.

With `COc1ccccc1C(=O)Nc1ccc2c3c(cccc13)CC2`, the concentration for half-maximal inhibition (IC50) was 8.08 µM. Further, the IC50 under setting [1] came to 35.9 µM. For the same compound, under setting [2], the IC90 is > 50 µM. Besides, under setting [3], the concentration for an effect of 90% (IC90) is > 100 µM.

On to `Nc1c2c(nc3sc4c(c13)CCCC4)-c1ccccc1CC2`, for which the IC50 was 6.11 µM. Under setting [1], the IC50 was > 100 µM. Besides, the IC90 under setting [2] was > 100 µM. In addition, the IC90 under setting [3] is > 100 µM.

In the case of `COc1ccc(OC)c(NC(=O)CSC2=C(C#N)C(c3ccco3)C3=C(CCCC3=O)N2)c1` (stereo not drawn), the IC50 is 70.4 µM (inactive). Moreover, under setting [1], the IC50 amounted to 94.2 µM. Also, under setting [2], the IC90 is > 100 µM. Under setting [3], the IC90 was > 100 µM.

Take `CC(C)NC(=S)NN=C1c2ccccc2-c2ccccc21`: the IC50 is 35.7 µM (inactive). Moreover, the IC50 under setting [1] worked out at 58.2 µM. Also, the IC90 under setting [2] was > 100 µM. Also, the IC90 under setting [3] is > 100 µM.

Consider `O=C(/C=C/c1cccnc1)c1ccc(O)cc1`, for which the IC50 is 19.8 µM (inactive). This compound also came in with an IC50 under setting [1] of 34.2 µM. Also, the IC90 under setting [2] was found to be 46.9 µM. The IC90 under setting [3] was determined as 50.4 µM.

Turning to `O=C1C=C2C=C[C@@H]3CC2(O1)[C@H]1CCCCN31`, the IC50 is 78.1 µM (inactive). For the same compound, the IC50 under setting [1] is > 100 µM. Further, under setting [2], the IC90 is > 100 µM. In addition, the IC90 under setting [3] is > 100 µM.

For `NC(=O)[C@@H]1CC2(CC(c3cccc(NC(=O)COc4ccc(Cl)cc4)c3)=NO2)CN1C(=O)COc1ccc(Cl)cc1` (stereo partly drawn), the IC50 is 75.4 µM (inactive). Besides, the concentration for half-maximal inhibition (IC50) under setting [1] is > 100 µM. Moreover, the IC90 under setting [2] is > 100 µM. Further, the 90% effect concentration (IC90) under setting [3] was > 100 µM.

In the case of `CS(=O)(=O)N(Cc1ccccc1)c1ccc(C(=O)N2CCN(c3cccc(Cl)c3)CC2)cc1`, the IC50 is > 100 µM (inactive). For the same compound, the IC50 under setting [1] is > 100 µM. For the same compound, the 90% effect concentration (IC90) under setting [2] was > 100 µM. The IC90 under setting [3] was > 100 µM.

For the compound `CCOC(=O)c1cnn(-c2ncnc3sc4c(c23)CCC4)c1N`, the IC50 was 23.6 µM. Besides, under setting [1], the IC50 is > 100 µM. For the same compound, under setting [2], the IC90 was > 100 µM. Under setting [3], the IC90 is > 50 µM.

Consider `COc1ccc(NC(=O)c2cc(C)nc3ccccc23)c(OC)c1`, for which the half-inhibitory concentration (IC50) was 11.7 µM. The same compound showed an IC50 under setting [1] of 31.6 µM. The same compound displayed an IC90 under setting [2] of 69.1 µM. This compound also yielded an IC90 under setting [3] of 12.9 µM.

For `CCC(C)NCCOCCOc1ccc(Cl)c2ccccc12` (stereo not drawn), the IC50 was 32 µM (inactive). Besides, under setting [1], the concentration for half-maximal inhibition (IC50) is 38.3 µM. In addition, the IC90 under setting [2] was 53.3 µM. In addition, under setting [3], the concentration for an effect of 90% (IC90) turned out to be 50.7 µM.

In the case of `Cc1noc(/C=C/Nc2ccc(F)cc2F)c1[N+](=O)[O-]`, the IC50 is > 100 µM (inactive). For the same compound, the IC50 under setting [1] was > 100 µM. Under setting [2], the IC90 is > 100 µM. Besides, the 90% effect concentration (IC90) under setting [3] was > 100 µM.

As for `C=CCn1cc(C(=O)NCCCOC)c(=O)c2cc(S(=O)(=O)N(CC)CC)ccc21`, the IC50 is 99.9 µM (inactive). The IC50 under setting [1] is > 100 µM. Moreover, the IC90 under setting [2] is > 100 µM. For the same compound, the IC90 under setting [3] is > 100 µM.

For `Cc1cc(Br)ccc1NC(=O)c1ccccc1-c1ccccc1`, the IC50 is 14.1 µM. Moreover, the IC50 under setting [1] was > 100 µM. The IC90 under setting [2] was > 100 µM. Further, under setting [3], the IC90 was > 100 µM.
